Laboratory results from patent US7501430B2 (ArQule, Inc., priority 2006, dated 2009).

What follows are molecules tested against T1, mutant B-RAF (Homo sapiens, UniProt P15056, V600E) (assay: RAF biochemical assay (MEK-1 phosphorylation, anti-phospho MEK1/2 detection)). Conditions: not given.
T1 construct: purchased Upstate (Charlottesville, Va.)
T1 sequence (P15056 whole entry V600E): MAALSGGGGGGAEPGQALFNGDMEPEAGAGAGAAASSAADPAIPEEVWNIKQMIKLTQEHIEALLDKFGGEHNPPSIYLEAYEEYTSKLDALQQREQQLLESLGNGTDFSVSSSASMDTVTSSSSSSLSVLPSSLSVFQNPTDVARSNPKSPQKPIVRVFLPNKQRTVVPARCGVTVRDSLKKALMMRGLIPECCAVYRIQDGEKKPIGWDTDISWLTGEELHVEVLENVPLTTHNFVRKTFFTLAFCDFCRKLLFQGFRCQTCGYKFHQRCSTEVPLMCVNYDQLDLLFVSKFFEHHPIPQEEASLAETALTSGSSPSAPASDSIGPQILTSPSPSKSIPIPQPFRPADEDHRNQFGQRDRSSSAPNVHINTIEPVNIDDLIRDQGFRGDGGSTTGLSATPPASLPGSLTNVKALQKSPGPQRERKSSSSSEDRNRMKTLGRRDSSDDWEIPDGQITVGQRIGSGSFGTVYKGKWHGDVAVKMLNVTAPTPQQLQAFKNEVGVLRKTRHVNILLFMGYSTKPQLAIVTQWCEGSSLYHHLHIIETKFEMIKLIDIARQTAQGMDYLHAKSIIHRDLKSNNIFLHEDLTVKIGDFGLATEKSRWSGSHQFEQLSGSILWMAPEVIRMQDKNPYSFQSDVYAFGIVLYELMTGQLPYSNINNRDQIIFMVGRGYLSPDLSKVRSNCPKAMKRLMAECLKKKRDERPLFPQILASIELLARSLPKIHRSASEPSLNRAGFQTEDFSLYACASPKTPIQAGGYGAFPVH
In short: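 Detection is by ELISA: after a 30 min room-temperature reaction, plate-captured GST-MEK-1 is probed with anti-phospho MEK1/2, then an AP-tagged secondary antibody with fluorescent Attophos read-out.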
`CC(C)(N)C(=O)N1CCC[C@@H](Nc2nccc(-c3c(-c4ccc(F)cc4)nc4occn34)n2)C1` [Example 36, N-[(3R)-1-(2-amino-2-methylpropanoyl)piperidin-3-yl]-4-[6-(4-fluorophenyl)imi-dazo[2,1-b][1,3]oxazol-5-yl]pyrimidin-2-amine] was tested, and the IC50 was 4520 nM.

Same assay, conditions: @ 10 uM; read-out: Mutant B-RAF % inhibition
Work on `COc1cccc(-c2nc3occn3c2-c2ccnc(N[C@@H]3CCCN(S(=O)(=O)c4ccc(Cl)cc4)C3)n2)c1` [Example 103, N-{(3R)-1-[(4-chlorophenyl)sulfonyl]piperidin-3-yl}-4-[6-(3-methoxyphenyl)imidazo[2,1-b][1,3]oxazol-5-yl]pyrimidin-2-amine] yielded an inhibition at 10 µM of 48%. `O=S(=O)(c1c(F)cccc1F)N1CCC(Nc2nccc(-c3c(-c4ccc(F)cc4)nc4occn34)n2)CC1` [Example 236, N-{1-[(2,6-difluorophenyl)sulfonyl]piperidin-4-yl}-4-[6-(4-fluorophenyl)imidazo[2,1-b][1,3]oxazol-5-yl]pyrimidin-2-amine] gave an inhibition at 10 µM of 30%. `FC(F)(F)c1cccc(-c2nc3occn3c2-c2ccnc(NC3CCNCC3)n2)c1` [Example 306, N-piperidin-4-yl-4-{6-[3-(trifluoromethyl)phenyl]imidazo[2,b][1,3]oxazol-5-yl}pyrimidin-2-amine] was tested, and the inhibition at 10 µM was 32%. `Clc1ccccc1-c1nc2occn2c1-c1ccnc(NC2CCNCC2)n1` [Example 307, 4-[6-(2-chlorophenyl)imidazo[2,1-b][1,3]oxazol-5-yl]-N-piperidin-4-ylpyrimidin-2-amine] was tested, and the inhibition at 10 µM was 55%. `CS(=O)(=O)N1CCC(Nc2nccc(-c3c(-c4cccc(C(F)(F)F)c4)nc4occn34)n2)CC1` [Example 309, N-[1-(methylsulfonyl)piperidin-4-yl]-4-{6-(3-(trifluoromethyl)phenyl]imidazo[2,b][1,3]oxazol-5-yl)pyrimidin-2-amine] showed an inhibition at 10 µM of 33%. For `CC(=O)N1CCC(Nc2nccc(-c3c(-c4ccc(F)cc4Cl)nc4occn34)n2)CC1` [Example 305, N-(1-acetylpiperidin-4-yl)-4-[6-(2-chloro-4-fluorophenyl)imidazo[2,1-b][1,3]oxazol-5-yl]pyrimidin-2-amine], the inhibition at 10 µM was 47%. Molecule `O=C(Nc1ccccc1F)N1CCC(Nc2nccc(-c3c(-c4ccc(F)cc4)nc4occn34)n2)CC1` [Example 187, N-(2-fluorophenyl)-4-({4-[6-(4-fluorophenyl)imidazo[2,1-b][1,3]oxazol-5-yl]pyrimidin-2-yl}amino)piperidine-1-carboxamide] has an inhibition at 10 µM of 10%. In the case of `Cc1noc(C)c1NC(=O)N1CCC(Nc2nccc(-c3c(-c4ccc(F)cc4)nc4occn34)n2)CC1` [Example 178, N-(3,5-dimethylisoxazol-4-yl)-4-({4-[6-(4-fluorophenyl)imidazo[2,1-b][1,3]oxazol-5-yl]pyrimidin-2-yl}amino)piperidine-1-carboxamide], the inhibition at 10 µM is reported as 19%. In the case of `O=S(=O)(c1ccc(F)cc1)N1CCC(Nc2nccc(-c3c(-c4ccc(F)c(F)c4)nc4sccn34)n2)CC1` [Example 217, 4-[6-(3,4-difluorophenyl)imidazo[2,1-b][1,3]thiazol-5-yl]-N-{1-[(4-fluorophenyl)sulfonyl]piperidin-4-yl}pyrimidin-2-amine], the inhibition at 10 µM is reported as 48%. Work on `COc1cccc(-c2nc3sccn3c2-c2ccnc(N[C@@H]3CCCN(S(=O)(=O)c4cccc(OC)c4)C3)n2)c1` [Example 142, 4-[6-(3-methoxyphenyl)imidazo[2,1-b][1,3]thiazol-5-yl]-N-{(3R)-1-[(3-methoxyphenyl)sulfonyl]piperidin-3-yl}pyrimidin-2-amine] yielded an inhibition at 10 µM of 56%. `CN(C)c1ccc(NC(=O)N2CCC[C@@H](Nc3nccc(-c4c(-c5ccc(F)c(F)c5)nc5sccn45)n3)C2)cc1` [Example 86, (3R)-3-({4-[6-(3,4-difluorophenyl)imidazo[2,1-b][1,3]thiazol-5-yl]pyrimidin-2-yl}amino)-N-[4-(dimethylamino)phenyl]pip-eridine-1-carboxamide] showed an inhibition at 10 µM of 54%.

Same assay, conditions: read-out: Mutant B-RAF IC50
Molecule `COc1cccc(-c2nc3sccn3c2-c2ccnc(N[C@@H]3CCCN(S(=O)(=O)C4CC4)C3)n2)c1` [Example 325, N-[(3R)-1-(cyclopropylsulfonyl)piperidin-3-yl]-4-[6-(3-methoxyphenyl)imidazo[2,1-b][1,3]thiazol-5-yl]pyrimidin-2-amine] has an IC50 of 4000 nM. In the case of `C/C(=N\O)c1cccc(-c2nc3sccn3c2-c2ccnc(N[C@@H]3CCCN(S(=O)(=O)c4ccc(Cl)cc4)C3)n2)c1` [Example 389, (1E)-1-(3-{5-[2-({(3R)-1-[(4-chlorophenyl)sulfonyl]piperidin-3-yl}amino)pyrimidin-4-yl]imidazo[2,1-b][1,3]thiazol-6-yl}phenyl)ethanone oxime], the IC50 is reported as 34 nM. `O=S(=O)(c1ccc(F)c(Cl)c1)N1CCC[C@@H](Nc2nccc(-c3c(-c4ccc(F)cc4)nc4occn34)n2)C1` [Example 47, N-{(3R)-1-[(3-chloro-4-fluorophenyl)sulfonyl]piper-idin-3-yl}-4-[6-(4-fluorophenyl)imidazo[2,1-b][1,3]oxazol-5-yl]pyrimidin-2-amine] was tested, and the IC50 was 963 nM. `Nc1ccccc1-c1nc2sccn2c1-c1ccnc(N[C@@H]2CCCN(S(=O)(=O)c3ccc(Cl)cc3)C2)n1` [Example 132, 4-[6-(2-aminophenyl)imidazo[2,1-b][1,3]thiazol-5-yl]-N-{(3R)-1-[(4-chlorophenyl)sulfonyl]piper-idin-3-yl}pyrimidin-2-amine] gave an IC50 of 444 nM. Work on `O=S(=O)(c1ccc(Cl)cc1)N1CCC[C@H](Nc2nccc(-c3c(-c4cccc(O)c4)nc4sccn34)n2)C1` [Example 140, 3-{5-[2-({(3S)-1-[(4-chlorophenyl)sulfonyl]piperidin-3-yl}amino)pyrimidin-4-yl]imidazo[2,1-b][1,3]thiazol-6-yl}phenol] yielded an IC50 of 953 nM. With `O=C(NCC1CCCCC1)N1CCC(Nc2nccc(-c3c(-c4ccc(F)cc4)nc4occn34)n2)CC1` [Example 183, N-(cyclohexylmethyl)-4-({4-[6-(4-fluorophenyl)imidazo[2,1-b][1,3]oxazol-5-yl]pyrimidin-2-yl}amino)piperidine-1-carboxamide] the IC50 was 3610 nM. For `COc1ccc(NC(=O)N2CCC(Nc3nccc(-c4c(-c5ccc(F)cc5)nc5occn45)n3)CC2)cc1` [Example 173, 4-({4-[6-(4-fluorophenyl)imidazo[2,1-b][1,3]oxazol-5-yl]pyrimidin-2-yl}amino)-N-(4-methoxyphenyl)piperidine-1-carboxamide], the IC50 was 2560 nM. `CC(C)NC(=O)N1CCC(Nc2nccc(-c3c(-c4cccc(O)c4)nc4sccn34)n2)CC1` [Example 351, 4-({4-[6-(3-hydroxyphenyl)imidazo[2,1-b][1,3]thiazol-5-yl]pyrimidin-2-yl}amino)-N-isopropylpiperidine-1-carboxamide] gave an IC50 of 940 nM. For `CNC(=O)N1CCC(Nc2nccc(-c3c(-c4cccc(O)c4)nc4sccn34)n2)CC1` [Example 352, 4-({4-[6-(3-hydroxyphenyl)imidazo[2,1-b][1,3]thiazol-5-yl]pyrimidin-2-yl}amino)-N-methylpiperidine-1-carboxamide], the IC50 was 670 nM. For `O=C(OC[C@H](O)CO)c1ccc(S(=O)(=O)N2CCC[C@@H](Nc3nccc(-c4c(-c5cccc(O)c5)nc5sccn45)n3)C2)cc1` [Example 341, (2R)-2,3-dihydroxypropyl 4-{[(3R)-3-({4-[6-(3-hydroxyphenyl)imidazo[2,1-b][1,3]thiazol-5-yl]pyrimidin-2-yl}amino)piperidin-1-yl]sulfonyl}benzoate], the IC50 was 33 nM. Molecule `COc1cccc(-c2nc3sccn3c2-c2ccnc(NC3CCN(S(=O)(=O)c4ccc(F)cc4)CC3)n2)c1` [Example 214, N-{1-[(4-fluorophenyl)sulfonyl]piperidin-4-yl}-4-[6-(3-methoxyphenyl)imidazo[2,1-b][1,3]thiazol-5-yl]pyrimidin-2-amine] has an IC50 of 392 nM. With `c1ccc2cc(-c3nc4sccn4c3-c3ccnc(N[C@@H]4CCCNC4)n3)ccc2c1` [Example 97, 4-[6-(2-naphthyl)imidazo[2,1-b][1,3]thiazol-5-yl]-N-[(3R)-piperidin-3-yl]pyrimidin-2-amine] the IC50 was 314 nM. `CCCS(=O)(=O)N1CCC[C@@H](Nc2nccc(-c3c(-c4cccc(O)c4)nc4sccn34)n2)C1` [Example 370, 3-[5-(2-{[(3R)-1-(propylsulfonyl)piperidin-3-yl]amino}pyrimidin-4-yl)imidazo[2,1-b][1,3]thiazol-6-yl]phenol] was tested, and the IC50 was 1200 nM. In the case of `Cc1cn2c(-c3ccnc(N[C@@H]4CCCN(S(=O)(=O)c5ccc(Cl)cc5)C4)n3)c(-c3ccc(F)cc3)nc2s1` [Example 96, N-{(3R)-1-[(4-chlorophenyl)sulfonyl]piperidin-3-yl}-4-[6-(4-fluorophenyl)-2-methyl-imidazo[2,1-b][1,3]thiazol-5-yl]pyrimidin-2-amine], the IC50 is reported as 26 nM. In the case of `COc1cccc(-c2nc3sccn3c2-c2ccnc(N[C@@H]3CCCN(C[C@@H](O)CO)C3)n2)c1` [Example 147, (2R)-3-[(3R)-3-({4-[6-(3-methoxyphenyl)imidazo[2,1-b][1,3]thiazol-5-yl]pyrimidin-2-yl}amino)piperidin-1-yl]propane-1,2-diol], the IC50 is reported as over 3000 nM. `CSc1ccc(NC(=O)N2CCC[C@@H](Nc3nccc(-c4c(-c5cccc(O)c5)nc5sccn45)n3)C2)cc1` [Example 344, (3R)-3-({4-[6-(3-hydroxyphenyl)imidazo[2,1-b][1,3]thiazol-5-yl]pyrimidin-2-yl}amino)-N-[4-(methylthio)phenyl]piperidine-1-carboxamide] was tested, and the IC50 was 2450 nM. With `CC(=O)Nc1ccc(S(=O)(=O)N2CCC[C@@H](Nc3nccc(-c4c(-c5cccc(O)c5)nc5sccn45)n3)C2)cc1` [Example 374, N-(4-{[(3R)-3-({4-[6-(3-hydroxyphenyl)imidazo[2,1-b][1,3]thiazol-5-yl]pyrimidin-2-yl}amino)piperidin-1-yl]sulfonyl}phenyl)acetamide] the IC50 was 1 nM. In the case of `O=C(c1ccncc1)N1CCC[C@@H](Nc2nccc(-c3c(-c4cccc(O)c4)nc4sccn34)n2)C1` [Example 117, 3-[5-(2-{[(3R)-1-isonicotinoylpiperidin-3-yl]amino}pyrimidin-4-yl)imidazo[2,1-b][1,3]thiazol-6-yl]phenol], the IC50 is reported as 328 nM.
